Measured values: patent US6641841B2, “Tablet composition” (Ajinomoto Co., Inc., priority 1996, dated 2003)

What was measured:
[1] = Bioavailability of compound [1] taken orally before or after a meal; assay type: in vivo
blood sugar level = conditions: taken orally; cited from earlier work

bioavailability [1]: lowered
Structure (SMILES): CC(C)[C@H]1CC[C@H](C(=O)N[C@H](Cc2ccccc2)C(=O)O)CC1 [compound [1], N-(trans-4-isopropylcyclohexanecarbonyl)-D-phenylalanine]
effect of lowering the blood sugar level (blood sugar level): excellent effect of lowering the blood sugar level
